System: MV-4-11 cells
Experiment: Gene expression microarray analysis (Affymetrix PrimeView) and GSEA
Format: cell-based, human
Set-up: RFU PODN (11730768_x_at) / Fold change /veh PODN (11730768_x_at) / RFU LINC00158 (11744669_a_at) / Fold change /veh LINC00158 (11744669_a_at) / RFU DUSP10 (11751237_a_at) / Fold change /veh DUSP10 (11751237_a_at) / RFU ID3 (11757404_x_at) / Fold change /veh ID3 (11757404_x_at) / RFU PLEKHG5 (11737974_s_at) / Fold change /veh PLEKHG5 (11737974_s_at) / RFU LRRC4B (11730491_at) / Fold change /veh LRRC4B (11730491_at) / RFU GIMAP4 (11747438_a_at) / Fold change /veh GIMAP4 (11747438_a_at) / RFU KRT8 (11758183_x_at) / Fold change /veh KRT8 (11758183_x_at) / RFU CNN1 (11734310_a_at) / Fold change /veh CNN1 (11734310_a_at) / RFU VPS37D (11726825_at) / Fold change /veh VPS37D (11726825_at) / RFU C10orf10 (11716522_x_at) / Fold change /veh C10orf10 (11716522_x_at) / RFU KIR2DL2 /// KIR2DL4 /// KIR2DL5A /// KIR2DL5B /// KIR2DS1 /// KIR2DS2 /// KIR2DS3 /// KIR2DS4 /// KIR3DL3 /// KIR3DL3 /// KIR3DS1 (11738374_at) / Fold change /veh KIR2DL2 /// KIR2DL4 /// KIR2DL5A /// KIR2DL5B /// KIR2DS1 /// KIR2DS2 /// KIR2DS3 /// KIR2DS4 /// KIR3DL3 /// KIR3DL3 /// KIR3DS1 (11738374_at) / RFU C1QL1 (11718748_at) / Fold change /veh C1QL1 (11718748_at) / RFU TMPRSS4 (11747572_a_at) / Fold change /veh TMPRSS4 (11747572_a_at) / RFU HAMP (11756126_x_at) / Fold change /veh HAMP (11756126_x_at) / RFU RNFT2 (11725882_a_at) / Fold change /veh RNFT2 (11725882_a_at) / RFU NR4A2 (11747474_a_at) / Fold change /veh NR4A2 (11747474_a_at) / RFU ABCC12 (11746883_a_at) / Fold change /veh ABCC12 (11746883_a_at) / RFU TMEM136 (11760407_x_at) / Fold change /veh TMEM136 (11760407_x_at) / RFU CLDN22 /// WWC2 (11732394_at) / Fold change /veh CLDN22 /// WWC2 (11732394_at) / RFU HLA-DPB1 (11760878_x_at) / Fold change /veh HLA-DPB1 (11760878_x_at) / RFU SPINT1 (11716480_a_at) / Fold change /veh SPINT1 (11716480_a_at) / RFU GAP43 (11754022_s_at) / Fold change /veh GAP43 (11754022_s_at) / RFU A4GNT (11735810_at) / Fold change /veh A4GNT (11735810_at) / RFU PRB3 (11715151_x_at) / Fold change /veh PRB3 (11715151_x_at) / RFU TUBB4B (11761932_at) / Fold change /veh TUBB4B (11761932_at) / RFU CAPN14 (11732068_a_at) / Fold change /veh CAPN14 (11732068_a_at) / RFU TMCC2 (11721928_a_at) / Fold change /veh TMCC2 (11721928_a_at) / RFU IRGQ (11745062_a_at) / Fold change /veh IRGQ (11745062_a_at) / RFU FAM174B (11720279_a_at) / Fold change /veh FAM174B (11720279_a_at) / RFU TMPRSS4 (11748680_a_at) / Fold change /veh TMPRSS4 (11748680_a_at) / RFU FAM212B (11763350_a_at) / Fold change /veh FAM212B (11763350_a_at) / RFU PLEKHG5 (11743358_a_at) / Fold change /veh PLEKHG5 (11743358_a_at) / RFU ZSCAN30 (11745921_a_at) / Fold change /veh ZSCAN30 (11745921_a_at) / RFU CMKLR1 (11741424_a_at) / Fold change /veh CMKLR1 (11741424_a_at) / RFU LOC101060620 /// MAPK8IP1 (11723275_at) / Fold change /veh LOC101060620 /// MAPK8IP1 (11723275_at) / RFU SPTSSB (11747773_x_at) / Fold change /veh SPTSSB (11747773_x_at) / RFU PRSS12 (11739890_at) / Fold change /veh PRSS12 (11739890_at) / RFU BIN1 (11741810_x_at) / Fold change /veh BIN1 (11741810_x_at) / RFU WNT11 (11732464_a_at) / Fold change /veh WNT11 (11732464_a_at) / RFU C10orf10 (11716521_a_at) / Fold change /veh C10orf10 (11716521_a_at) / RFU C5orf56 (11738089_at) / Fold change /veh C5orf56 (11738089_at) / RFU CYB561 (11721691_x_at) / Fold change /veh CYB561 (11721691_x_at) / RFU ANKRD19P (11752326_a_at) / Fold change /veh ANKRD19P (11752326_a_at) / RFU OR2T12 /// OR2T33 /// OR2T8 (11738714_s_at) / Fold change /veh OR2T12 /// OR2T33 /// OR2T8 (11738714_s_at) / RFU VCAN (11748164_a_at) / Fold change /veh VCAN (11748164_a_at) / RFU JSRP1 (11732532_at) / Fold change /veh JSRP1 (11732532_at) / RFU KRTAP10-11 (11738290_x_at) / Fold change /veh KRTAP10-11 (11738290_x_at) / RFU MYO3A (11730013_a_at) / Fold change /veh MYO3A (11730013_a_at) / RFU EBF3 (11725865_a_at) / Fold change /veh EBF3 (11725865_a_at) / RFU CAMK2N1 (11719241_x_at) / Fold change /veh CAMK2N1 (11719241_x_at) / RFU C5orf56 (11738088_a_at) / Fold change /veh C5orf56 (11738088_a_at) / RFU OLFML3 (11715873_a_at) / Fold change /veh OLFML3 (11715873_a_at) / RFU LOC100653217 /// NTM (11731650_a_at) / Fold change /veh LOC100653217 /// NTM (11731650_a_at) / RFU MAPK11 (11762145_a_at) / Fold change /veh MAPK11 (11762145_a_at) / RFU FIZ1 (11724087_x_at) / Fold change /veh FIZ1 (11724087_x_at) / RFU OASL (11726364_x_at) / Fold change /veh OASL (11726364_x_at) / RFU SOX15 (11748057_x_at) / Fold change /veh SOX15 (11748057_x_at) / RFU CD79A (11719716_a_at) / Fold change /veh CD79A (11719716_a_at) / RFU HIST1H1D (11736915_at) / Fold change /veh HIST1H1D (11736915_at) / RFU CASKIN2 (11723855_a_at) / Fold change /veh CASKIN2 (11723855_a_at) / RFU LOC730098 (11760151_x_at) / Fold change /veh LOC730098 (11760151_x_at) / RFU OR4N2 (11742367_at) / Fold change /veh OR4N2 (11742367_at) / RFU PRRT2 (11749266_a_at) / Fold change /veh PRRT2 (11749266_a_at) / RFU SNX32 (11753110_a_at) / Fold change /veh SNX32 (11753110_a_at) / RFU CDHR5 (11726645_a_at) / Fold change /veh CDHR5 (11726645_a_at) / RFU RCAN1 (11760418_a_at) / Fold change /veh RCAN1 (11760418_a_at) / RFU FAM167A (11723789_a_at) / Fold change /veh FAM167A (11723789_a_at) / RFU FAM26E (11764081_at) / Fold change /veh FAM26E (11764081_at) / RFU ISYNA1 (11749810_s_at) / Fold change /veh ISYNA1 (11749810_s_at) / RFU ACY1 (11761880_at) / Fold change /veh ACY1 (11761880_at) / RFU 11764098_at / Fold change /veh 11764098_at / RFU SAMD14 (11745864_x_at) / Fold change /veh SAMD14 (11745864_x_at) / RFU NPB (11741838_a_at) / Fold change /veh NPB (11741838_a_at) / RFU TMPRSS6 (11731388_a_at) / Fold change /veh TMPRSS6 (11731388_a_at) / RFU KRTAP10-2 (11738614_at) / Fold change /veh KRTAP10-2 (11738614_at) / RFU ARHGAP8 /// PRR5-ARHGAP8 (11727945_x_at) / Fold change /veh ARHGAP8 /// PRR5-ARHGAP8 (11727945_x_at) / RFU KRTAP5-7 /// NADSYN1 (11734609_at) / Fold change /veh KRTAP5-7 /// NADSYN1 (11734609_at) / RFU RASL12 (11751679_a_at) / Fold change /veh RASL12 (11751679_a_at) / RFU CDKN2B (11736163_a_at) / Fold change /veh CDKN2B (11736163_a_at) / RFU PRF1 (11729649_at) / Fold change /veh PRF1 (11729649_at) / RFU, ZNF638 /// ZNF638-IT1 / Fold change vs veh, ZNF638 /// ZNF638-IT1 / RFU, PANK3 / Fold change vs veh, PANK3 / RFU, SH3YL1 / Fold change vs veh, SH3YL1 / RFU, ZEB2 / Fold change vs veh, ZEB2 / RFU, NRIP1 / Fold change vs veh, NRIP1 / RFU, PTTG1IP / Fold change vs veh, PTTG1IP / RFU, CAPN2 / Fold change vs veh, CAPN2 / RFU, MED14 / Fold change vs veh, MED14 / RFU, SNORA58 / Fold change vs veh, SNORA58 / RFU, C1orf63 / Fold change vs veh, C1orf63 / RFU, LRRFIP1 / Fold change vs veh, LRRFIP1 / RFU, NDUFAF7 / Fold change vs veh, NDUFAF7 / RFU, SLC12A2 / Fold change vs veh, SLC12A2 / RFU, IBTK / Fold change vs veh, IBTK / RFU, ESF1 / Fold change vs veh, ESF1 / Fold change vs veh, TMEM50B / RFU, TAOK1 / Fold change vs veh, TAOK1 / RFU, ACBD3 / Fold change vs veh, ACBD3 / RFU, TMA16 / Fold change vs veh, TMA16 / RFU, RWDD3 / Fold change vs veh, RWDD3 / RFU, BCAT1 / Fold change vs veh, BCAT1 / RFU, EDEM3 / Fold change vs veh, EDEM3 / RFU, TMEM33 / Fold change vs veh, TMEM33 / RFU, WDR75 / Fold change vs veh, WDR75 / RFU, AHCTF1 / Fold change vs veh, AHCTF1 / RFU, TFRC / Fold change vs veh, TFRC / RFU, ZDHHC17 / Fold change vs veh, ZDHHC17 / RFU, NOM1 / Fold change vs veh, NOM1 / RFU, ARL8B / Fold change vs veh, ARL8B / RFU, ZBTB11 / Fold change vs veh, ZBTB11 / RFU, TAMM41 / Fold change vs veh, TAMM41 / RFU, KIAA1704 /// LOC100996395 / Fold change vs veh, KIAA1704 /// LOC100996395 / RFU, ING1 / Fold change vs veh, ING1 / RFU, TRMT61B / Fold change vs veh, TRMT61B / RFU, FUBP3 / Fold change vs veh, FUBP3 / RFU, TP53 / Fold change vs veh, TP53 / RFU, TNKS2 / Fold change vs veh, TNKS2 / RFU, ZFP14 / Fold change vs veh, ZFP14 / RFU, ACTR2 / Fold change vs veh, ACTR2 / RFU, PPP3R1 / Fold change vs veh, PPP3R1 / RFU, PIK3R1 / Fold change vs veh, PIK3R1 / RFU, HNRNPA1 / Fold change vs veh, HNRNPA1 / RFU, RNF170 / Fold change vs veh, RNF170 / RFU, ZNF28 / Fold change vs veh, ZNF28 / RFU, RNGTT / Fold change vs veh, RNGTT / RFU, OGT / Fold change vs veh, OGT / RFU, BRD1 / Fold change vs veh, BRD1 / RFU, MARS / Fold change vs veh, MARS / RFU, ZNF655 / Fold change vs veh, ZNF655 / RFU, FAHD1 / Fold change vs veh, FAHD1 / RFU, BDP1 / Fold change vs veh, BDP1 / RFU, LRRCC1 / Fold change vs veh, LRRCC1 / RFU, ARID1A / Fold change vs veh, ARID1A / RFU, ZNF146 / Fold change vs veh, ZNF146 / RFU, ZNF330 / Fold change vs veh, ZNF330 / RFU, GPN3 / Fold change vs veh, GPN3 / RFU, C9orf123 / Fold change vs veh, C9orf123 / RFU, N4BP2L2 / Fold change vs veh, N4BP2L2 / RFU, ARFIP1 / Fold change vs veh, ARFIP1 / RFU, FAM179B / Fold change vs veh, FAM179B / RFU, BCL10 / Fold change vs veh, BCL10 / RFU, UHRF1BP1L / Fold change vs veh, UHRF1BP1L / RFU, BET1 / Fold change vs veh, BET1 / RFU, CNOT2 / Fold change vs veh, CNOT2 / RFU, ZNF268 / Fold change vs veh, ZNF268 / Fold change vs veh, ZNF507 / RFU, DGCR2 / Fold change vs veh, DGCR2 / RFU, WDSUB1 / Fold change vs veh, WDSUB1 / Fold change vs veh, HSP90B1 /// MIR3652 / RFU, ADSS / Fold change vs veh, ADSS / RFU, GK / Fold change vs veh, GK / RFU, ZNF148 / Fold change vs veh, ZNF148 / RFU, TAF9 / Fold change vs veh, TAF9 / RFU, SLC1A5 / Fold change vs veh, SLC1A5 / RFU, SLMO2 / Fold change vs veh, SLMO2 / RFU, ABCC4 / Fold change vs veh, ABCC4 / RFU, LOC101060439 /// RAP1B / Fold change vs veh, LOC101060439 /// RAP1B / RFU, RFX7 / Fold change vs veh, RFX7 / RFU, GTPBP10 / Fold change vs veh, GTPBP10 / RFU, CNEP1R1 / Fold change vs veh, CNEP1R1 / RFU, BIVM-ERCC5 /// ERCC5 / Fold change vs veh, BIVM-ERCC5 /// ERCC5 / RFU, ILF3 / Fold change vs veh, ILF3 / RFU 11762660_at / Fold change /veh 11762660_at / RFU VCAN (11757783_s_at) / Fold change /veh VCAN (11757783_s_at) / RFU DDX43 (11728927_at) / Fold change /veh DDX43 (11728927_at) / RFU KRT8 (11758188_x_at) / Fold change /veh KRT8 (11758188_x_at) / RFU NKD1 (11759106_at) / Fold change /veh NKD1 (11759106_at) / RFU SRD5A1 (11742802_a_at) / Fold change /veh SRD5A1 (11742802_a_at) / RFU TPSAB1 /// TPSB2 (11721975_s_at) / Fold change /veh TPSAB1 /// TPSB2 (11721975_s_at) / RFU GSTM3 (11746129_a_at) / Fold change /veh GSTM3 (11746129_a_at) / RFU IL23R (11737362_x_at) / Fold change /veh IL23R (11737362_x_at) / RFU TMEM51 (11727254_a_at) / Fold change /veh TMEM51 (11727254_a_at) / RFU PIWIL2 (11732686_x_at) / Fold change /veh PIWIL2 (11732686_x_at) / RFU ORM1 (11744905_x_at) / Fold change /veh ORM1 (11744905_x_at) / RFU CCDC152 (11743942_at) / Fold change /veh CCDC152 (11743942_at) / RFU ECM1 (11717891_a_at) / Fold change /veh ECM1 (11717891_a_at) / RFU IL23R (11748794_a_at) / Fold change /veh IL23R (11748794_a_at) / RFU TNFAIP8L3 (11732012_x_at) / Fold change /veh TNFAIP8L3 (11732012_x_at) / RFU MBOAT4 (11741988_at) / Fold change /veh MBOAT4 (11741988_at) / RFU 11764193_at / Fold change /veh 11764193_at / RFU TMEM53 (11763286_at) / Fold change /veh TMEM53 (11763286_at) / RFU MAGEB2 (11727129_at) / Fold change /veh MAGEB2 (11727129_at) / RFU TMEM200A (11744735_a_at) / Fold change /veh TMEM200A (11744735_a_at) / RFU CCDC152 (11751479_a_at) / Fold change /veh CCDC152 (11751479_a_at) / RFU FAM211A (11726209_a_at) / Fold change /veh FAM211A (11726209_a_at) / RFU RGS16 (11746705_a_at) / Fold change /veh RGS16 (11746705_a_at) / RFU VCAN (11755009_s_at) / Fold change /veh VCAN (11755009_s_at) / RFU RHOB (11743442_s_at) / Fold change /veh RHOB (11743442_s_at) / RFU RGS16 (11720943_a_at) / Fold change /veh RGS16 (11720943_a_at) / RFU RGS16 (11720944_at) / Fold change /veh RGS16 (11720944_at) / RFU, VPS4B / Fold change vs veh, VPS4B / RFU, CREB1 / Fold change vs veh, CREB1 / RFU, DNAJC13 / Fold change vs veh, DNAJC13 / RFU, GNAQ / Fold change vs veh, GNAQ / RFU, CDK5R1 / Fold change vs veh, CDK5R1 / RFU, ZRANB3 / Fold change vs veh, ZRANB3 / RFU, CUL4A / Fold change vs veh, CUL4A / RFU, CCNY / Fold change vs veh, CCNY / RFU, UFL1 / Fold change vs veh, UFL1 / RFU, COG3 / Fold change vs veh, COG3 / RFU, DIAPH2 / Fold change vs veh, DIAPH2 / RFU, SKA2 / Fold change vs veh, SKA2 / RFU, AFF3 / Fold change vs veh, AFF3 / RFU, LMF1 / Fold change vs veh, LMF1 / RFU, IPO11 / Fold change vs veh, IPO11 / RFU, DFFB / Fold change vs veh, DFFB / RFU, FOXP1 / Fold change vs veh, FOXP1 / RFU, CARD8 / Fold change vs veh, CARD8 / RFU, STRN3 / Fold change vs veh, STRN3 / RFU, ADK / Fold change vs veh, ADK / RFU, RASSF2 / Fold change vs veh, RASSF2 / RFU, WIPF1 / Fold change vs veh, WIPF1 / RFU, LARP1B / Fold change vs veh, LARP1B / RFU, RASA1 / Fold change vs veh, RASA1 / RFU, RB1 / Fold change vs veh, RB1 / RFU, PPFIA1 / Fold change vs veh, PPFIA1 / RFU, MAT2A / Fold change vs veh, MAT2A / RFU, CCT5 / Fold change vs veh, CCT5 / RFU, WDR92 / Fold change vs veh, WDR92 / RFU, CUX1 / Fold change vs veh, CUX1 / RFU, TTC7A / Fold change vs veh, TTC7A / RFU, TMEM135 / Fold change vs veh, TMEM135 / RFU, DEPTOR / Fold change vs veh, DEPTOR / RFU, CPM / Fold change vs veh, CPM / RFU, DNAJB6 / Fold change vs veh, DNAJB6 / RFU, CACNA2D3 / Fold change vs veh, CACNA2D3 / RFU, DTX4 / Fold change vs veh, DTX4 / RFU, TFCP2 / Fold change vs veh, TFCP2 / RFU, GMCL1 /// GMCL1P1 / Fold change vs veh, GMCL1 /// GMCL1P1 / RFU, AEBP2 / Fold change vs veh, AEBP2 / RFU, SNHG1 /// SNORD22 /// SNORD25 /// SNORD26 /// SNORD27 /// SNORD28 /// SNORD29 /// SNORD31 / Fold change vs veh, SNHG1 /// SNORD22 /// SNORD25 /// SNORD26 /// SNORD27 /// SNORD28 /// SNORD29 /// SNORD31 / Fold change (Aza/veh), C12orf56 (ProbeSet 11735607_a_at) / Fold change (ACY-1035/veh), C12orf56 (ProbeSet 11735607_a_at) / Fold change (Aza/veh), FGFR1OP (ProbeSet 11751329_s_at) / Fold change (ACY-1035/veh), FGFR1OP (ProbeSet 11751329_s_at) / Fold change (Aza/veh), VPS36 (ProbeSet 11739960_a_at) / Fold change (ACY-1035/veh), VPS36 (ProbeSet 11739960_a_at) / RFU SYPL1 (11715823_x_at) / Fold change /veh SYPL1 (11715823_x_at) / RFU IGFBP7 (11715501_s_at) / Fold change /veh IGFBP7 (11715501_s_at) / RFU REEP3 (11722064_at) / Fold change /veh REEP3 (11722064_at) / RFU IGLL1 (11728026_x_at) / Fold change /veh IGLL1 (11728026_x_at): dose or concentration left out as unconfirmed
Conditions: ProbeSet 11731583_a_at; LIST D

## Nc1ccc(-c2cccs2)cc1NC(=O)c1ccc2c(c1)cc(C1CC1)n2CCN1CCOCC1 [ACY-1035]
  Fold change vs veh, LARP1B: 0.85
